Test results: ChEMBL document CHEMBL6074651, “Hit-to-lead optimization of 4,5-dihydrofuran-3-sulfonyl scaffold against Leishmania amazonensis. Effect of an aliphatic moiety” (Eur J Med Chem, 2024)
pIC50: −log10 of the molar value.

Legend:
[1] = system: Leishmania amazonensis; assay: Antileishmanial activity against leishmania amazonensis promastigotes MHOM/BR/77/LTB0016 assessed as parasite growth inhibition incubated for 72 hrs by resazurin dye based analysis; format: functional, organism-based; settings: MHOM/BR/77/LTB0016, 72 h
[2] = system: Leishmania amazonensis; assay: Antileishmanial activity against leishmania amazonensis intracellular amastigotes assessed as parasite growth inhibition measured after 72 hrs by hematological dye based microscopic analysis; format: functional, organism-based
[3] = Selectivity index, ratio of CC50 for cytotoxicity against murine peritoneal macrophages assessed as inhibition of cell viability to IC50 for antileishmanial activity against leishmania amazonensis intracellular amastigotes assessed as parasite growth inhibition; format: toxicity, cell-based, Macrophage; settings: mouse, read-out: Ratio CC50/IC50
[4] = Cytotoxicity against mouse Peritoneal macrophage cell assessed as inhibition of cell viability incubated for 72 hrs by resazurin dye based analysis; format: toxicity; settings: peritoneal macrophages

Work on `CC1(Cc2ccccc2)CC(C(=O)NC2CCCC2)=C(c2ccc(/C(N)=N/O)cc2)O1` (stereo unspecified) yielded a pIC50 [1] of 4.21.
For `CC1(Cc2ccccc2)CC(C(=O)N2CCOCC2)=C(c2ccc(/C(N)=N/O)cc2)O1` (stereo unspecified), the pIC50 [1] was under 3.89.
For `CC1(Cc2ccccc2)CC(S(C)(=O)=O)=C(c2ccc(/C(N)=N/O)cc2)O1` (stereo unspecified), the pIC50 [1] was 4.04.
Work on `CCOC(=O)C1=C(c2ccc(/C(N)=N/O)cc2)OC(C)(Cc2ccccc2)C1` (stereo unspecified) yielded a pIC50 [1] of 5.20, a pIC50 [2] of 5.89 and a selectivity ratio [3] of 87.8. It also gave a CC50 at 72 h [4] of 112 µM.
For `CC1(Cc2ccccc2)CC(C(=O)NCCN2CCCC2)=C(c2ccc(/C(N)=N/O)cc2)O1` (stereo unspecified), the pIC50 [1] was 3.99.
In the case of `CCCCNC(=O)C1=C(c2ccc(/C(N)=N/O)cc2)OC(C)(Cc2ccccc2)C1` (stereo unspecified), the pIC50 [1] was 4.03.
Work on `COC(=O)C1=C(c2ccc(/C(N)=N/O)cc2)OC(C)(Cc2ccccc2)C1` (stereo unspecified) yielded a pIC50 [1] of 5.33, a pIC50 [2] of 5.64 and a selectivity ratio [3] of 30.7. The CC50 at 72 h [4] was 70.6 µM.
With `CCCCS(=O)(=O)C1=C(c2ccc(/C(N)=N/O)cc2)OC(C)(Cc2ccccc2)C1` (stereo unspecified) the pIC50 [1] was 4.20.
With `CCN(CC)C(=O)C1=C(c2ccc(/C(N)=N/O)cc2)OC(C)(Cc2ccccc2)C1` (stereo unspecified) the pIC50 [1] was 4.22.
With `CC1(Cc2ccccc2)CC(C(=O)NC2CCCCC2)=C(c2ccc(/C(N)=N/O)cc2)O1` (stereo unspecified) the pIC50 [1] was 4.36.
